Experimental data from patent US20260325605A1, “INHIBITORS” (Zealand Pharma A/S, priority 2022, published 2026).

Tests used:
[1] = Example 6: Pharmacokinetic characterisation after s.c. administration; format: in vivo, rat (Sprague Dawley or Wistar); details: rat, 70 nmol/kg
Protocol: Sprague Dawley or Wistar rats (males with a body weight of approximately 250-350 g) were given a single subcutaneous (s.c.) injection of each peptide to be tested.
Following s.c. administration of the selected peptides (dose 70 nmol/kg, dosing volume either 2 or 5 mL/kg), blood samples were drawn at 15 min, 30 min, 45 min, 60 min, 90 min, 2 h, 3 h, 4 h post-dose. At each sampling time point, samples from the rats were drawn by sublingual bleeding or by tail cut. After last sampling the rats were sacrificed by O2/CO2 anaesthesia. The dosing vehicle was 10 mM phosphate, 0.8% NaCl, 0.05% Polysorbate 20 (pH 6.0).
Plasma samples were analyzed after solid phase extraction (SPE) by liquid chromatography mass spectrometry (LC-MS/MS). Mean plasma concentrations were used for calculation of the pharmacokinetic parameters using the non-compartmental approach in Phoenix WinNonlin 6.4 or a later version. […]. AUCinf is the area under the plasma concentration−time curve extrapolated to infinity (AUCinf=AUClast+Clast/λz, where Clast is the last observed plasma concentration). Cmax is the maximum observed concentration, occurring at Tmax.

[2] = test system: KLH-induced DTH ear swelling in rats; assay: Example 8: Long-lasting effect in KLH-induced delayed type hypersensitivity (DTH) model; format: in vivo, rat (Lewis)
Protocol: The animal care facility employed is accredited by AAALAC. Female Lewis rats, weighing 180±20 g at delivery were used for this study. Following arrival in the animal facility, all animals were subjected to a general health evaluation. An acclimation period of 1 day was allowed before the beginning of the study.
The animal room was maintained at a controlled temperature of 20-24° C. and a relative humidity of 30-70%. A controlled lighting system assured 12 hours light, 12 hours dark per day to the animals. Adequate ventilation of 15 air changes per hour was maintained.
This study was performed to investigate the length of effect of a Kv1.3 inhibitor (peptide 100) on ear inflammation in the KLH-induced DTH model in rats.
Healthy male Lewis rats aged 8-9 weeks were immunized on day 0 with 200 μL keyhole limpet hemocyanin (KLH) (from Sigma, cat.no. H7017) (4 mg/mL) emulsified in complete Freund's adjuvant (CFA) (Difco, cat.no. 263810) subcutaneously (SC) at the base of the tail.
To elicit a KLH-specific T cell-mediated local inflammation, rats were challenged intradermally at indicated timepoints (days 7, 9, 11 or 13 post-immunisation) with 40 μL KLH/NaCl 0.9% (2 mg/mL) in the left ear. Ear edemas were measured after 24-48 hrs and the right ear that was left untreated served as control. A schematic overview of the protocol is depicted in FIG. 1.
The ability of Kv1.3 inhibitor treatment to reduce the DTH ear swelling response was investigated by comparing the response in rats (n=8/group) treated with vehicle to that of rats treated with peptide 100. Vehicle or peptide 100 dissolved in vehicle was administered SC (2 mL/kg) on day 6. The test dose of Kv1.3 inhibitor was 300 nmol/kg. Test vehicle was 10 mM phosphate, 0.8% w/v NaCl, 0.05% w/v polysorbate20, pH 6. Cyclosporine A (CsA) was included as positive study control.
As readout of efficacy, the thickness of the induced ear 24 hrs and 48 hrs after respective ear challenge was measured and compared to vehicle control. Ear thickness 24 hrs after challenge is shown in Table 10 and FIG. 2 and ear thickness 48 hrs after challenge is shown in Table 11 and FIG. 3.

[3] = biological target: T1, Kv1.2 (Homo sapiens, UniProt P16389); assay: Patch clamp assay (QPatch), Kv1.2; format: cell-based
T1 construct: expressed in transfected cells
Protocol: Selectivity of Kv1.3 inhibitor peptides for Kv1.3 over other potassium ion channels (Kv1.1, Kv1.2 and Kv1.6) was determined using patch clamp assay.
Chinese Hamster Ovary (CHO) cell lines stably expressing exogenous human α-subunits of each potassium ion channel were grown and passaged under standard culture conditions.
The automated, chip-based planar patch clamp device QPatch® was used to quantitate the ionic currents. All recordings were made in the conventional whole-cell configuration after establishment of gigaohm seals. […] During experiments 0.1% (v/v) BSA was included as a vehicle in all external recording solutions. Currents were elicited from a holding potential of −80 mV using a voltage protocol, which shifted the voltage to 30 mV for 500 ms every 15 s.
Concentration-response relationships were established by cumulatively applying seven escalating concentrations of test sample to an individual cell with a recording period of 2 min per compound application.
The efficacy was determined as the mean charge for the last three sweeps at the end of each concentration application period from the cursor positions. The percent inhibition for each test dose application period was calculated as the reduction in mean cursor value (charge) relative to the cursor value measured at the end of the vehicle period and used to calculate the IC50 from the concentration response curve.

[4] = biological target: T2, Kv1.3 (Homo sapiens, UniProt P22001); assay: Patch clamp assay (QPatch), Kv1.3; format: cell-based; details: CHO cells stably expressing human Kv1.3, read-out: Potency IC50, Kv1.3
T2 construct: expressed in transfected cells
T2 sequence (P22001 whole entry): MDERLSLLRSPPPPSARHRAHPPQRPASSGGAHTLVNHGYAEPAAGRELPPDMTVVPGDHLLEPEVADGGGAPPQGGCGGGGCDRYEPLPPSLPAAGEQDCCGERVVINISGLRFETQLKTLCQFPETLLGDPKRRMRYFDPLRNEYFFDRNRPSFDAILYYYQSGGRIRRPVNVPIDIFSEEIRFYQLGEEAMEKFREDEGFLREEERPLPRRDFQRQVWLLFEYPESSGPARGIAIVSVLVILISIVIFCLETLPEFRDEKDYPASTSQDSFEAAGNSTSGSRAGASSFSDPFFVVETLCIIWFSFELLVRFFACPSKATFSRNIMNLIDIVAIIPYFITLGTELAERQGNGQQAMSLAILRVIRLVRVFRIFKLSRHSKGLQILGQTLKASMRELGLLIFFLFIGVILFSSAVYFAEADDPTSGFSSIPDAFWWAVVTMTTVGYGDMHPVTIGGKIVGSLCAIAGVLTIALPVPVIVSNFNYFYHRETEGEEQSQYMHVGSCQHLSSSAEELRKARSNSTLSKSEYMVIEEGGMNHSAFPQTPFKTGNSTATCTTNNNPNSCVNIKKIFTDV

T1 sequence (P16389 whole entry): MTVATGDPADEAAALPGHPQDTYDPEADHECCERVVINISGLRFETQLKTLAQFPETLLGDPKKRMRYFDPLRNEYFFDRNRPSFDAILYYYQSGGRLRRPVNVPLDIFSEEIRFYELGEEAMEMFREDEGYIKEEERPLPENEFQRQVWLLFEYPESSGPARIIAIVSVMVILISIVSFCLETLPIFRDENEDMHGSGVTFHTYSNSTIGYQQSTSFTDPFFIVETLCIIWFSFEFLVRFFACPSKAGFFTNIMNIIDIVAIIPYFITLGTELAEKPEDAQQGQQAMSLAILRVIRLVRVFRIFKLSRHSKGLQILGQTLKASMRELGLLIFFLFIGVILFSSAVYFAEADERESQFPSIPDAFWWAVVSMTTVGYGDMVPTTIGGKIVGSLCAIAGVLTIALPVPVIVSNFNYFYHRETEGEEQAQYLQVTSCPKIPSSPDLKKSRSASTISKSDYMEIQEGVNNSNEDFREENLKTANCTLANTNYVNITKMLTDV

Substance: H-P[Nle]E[Nle]RC(1)SASVEC(2)KQKC(3)LAAIGSIFGKC(1)[Nle]NKKC(2)KC(3)YPR-OH [Peptide 100]
- AUCINF ([1]; plasma): 0.112 µM·h
- Cmax ([1]; plasma): 52.6 nM
- T1/2 ([1]; plasma terminal elimination half-life): 1.04 h
- effect on KLH-induced ear swelling / inflammation ([2]; 300 nmol/kg on day 6, challenges on days 7, 9 and 11, in words): reduced KLH-induced ear swelling after challenges on days 7, 9 and 11
- Mean ear thickness of KLH-induced ear ([2]; 300 nmol/kg s.c. day 6, challenge day 7, 24 hrs post-challenge (2 days post-treatment), vehicle 0.796, p<0.0001): 0.676±0.017 mm
- Mean ear thickness of KLH-induced ear ([2]; 300 nmol/kg s.c. day 6, challenge day 7, 48 hrs post-challenge (3 days post-treatment), vehicle 0.733, p<0.0001): 0.623±0.015 mm
- Mean ear thickness of KLH-induced ear ([2]; 300 nmol/kg s.c. day 6, challenge day 9, 24 hrs post-challenge (4 days post-treatment), vehicle 0.761, p=0.0011): 0.689±0.031 mm
- Mean ear thickness of KLH-induced ear ([2]; 300 nmol/kg s.c. day 6, challenge day 9, 48 hrs post-challenge (5 days post-treatment), vehicle 0.729, p=0.0002): 0.659±0.034 mm
- Mean ear thickness of KLH-induced ear ([2]; 300 nmol/kg s.c. day 6, challenge day 11, 24 hrs post-challenge (6 days post-treatment), vehicle 0.784, p<0.0001): 0.681±0.023 mm
- Mean ear thickness of KLH-induced ear ([2]; 300 nmol/kg s.c. day 6, challenge day 11, 48 hrs post-challenge (7 days post-treatment), vehicle 0.746, p<0.0001): 0.653±0.013 mm
- Mean ear thickness of KLH-induced ear ([2]; 300 nmol/kg s.c. day 6, challenge day 13, 24 hrs post-challenge (8 days post-treatment), vehicle 0.767, p=0.0696, not significant): 0.729±0.038 mm
- Mean ear thickness of KLH-induced ear ([2]; 300 nmol/kg s.c. day 6, challenge day 13, 48 hrs post-challenge (9 days post-treatment), vehicle 0.720, p=0.2256, not significant): 0.699±0.028 mm
- Mean ear thickness of KLH-induced ear ([2]; measured 48 hrs post-challenge, day 3 post-treatment, 300 nmol/kg SC): 0.623 mm
- Mean ear thickness of KLH-induced ear ([2]; measured 48 hrs post-challenge, day 5 post-treatment, 300 nmol/kg SC): 0.659 mm
- Mean ear thickness of KLH-induced ear ([2]; measured 48 hrs post-challenge, day 7 post-treatment, 300 nmol/kg SC): 0.653 mm
- Mean ear thickness of KLH-induced ear ([2]; measured 48 hrs post-challenge, day 9 post-treatment, 300 nmol/kg SC): 0.699 mm
- IC50 ([3]; QPatch, CHO cells stably expressing human Kv1.2, read-out: Potency IC50, Kv1.2): 1120 nM
- Selectivity Kv1.2/Kv1.3 ([3]; ratio of IC50 Kv1.2/Kv1.3): 3384
- IC50 [4]: 0.33 nM
